Test results from patent publication US20260055079A1, “PHTHALAZINONE COMPOUNDS AS PARP7 INHIBITORS” (AZKARRA THERAPEUTICS, INC., priority 2022, published 2026).
Where two headings read alike, the source gives them in different places.

Biological target: His-GST-PARP7 (Homo sapiens (Human), UniProt Q7Z3E1)
Experiment: PARP7 biochemical assay

Chain of His-GST-PARP7 (Q7Z3E1 whole entry): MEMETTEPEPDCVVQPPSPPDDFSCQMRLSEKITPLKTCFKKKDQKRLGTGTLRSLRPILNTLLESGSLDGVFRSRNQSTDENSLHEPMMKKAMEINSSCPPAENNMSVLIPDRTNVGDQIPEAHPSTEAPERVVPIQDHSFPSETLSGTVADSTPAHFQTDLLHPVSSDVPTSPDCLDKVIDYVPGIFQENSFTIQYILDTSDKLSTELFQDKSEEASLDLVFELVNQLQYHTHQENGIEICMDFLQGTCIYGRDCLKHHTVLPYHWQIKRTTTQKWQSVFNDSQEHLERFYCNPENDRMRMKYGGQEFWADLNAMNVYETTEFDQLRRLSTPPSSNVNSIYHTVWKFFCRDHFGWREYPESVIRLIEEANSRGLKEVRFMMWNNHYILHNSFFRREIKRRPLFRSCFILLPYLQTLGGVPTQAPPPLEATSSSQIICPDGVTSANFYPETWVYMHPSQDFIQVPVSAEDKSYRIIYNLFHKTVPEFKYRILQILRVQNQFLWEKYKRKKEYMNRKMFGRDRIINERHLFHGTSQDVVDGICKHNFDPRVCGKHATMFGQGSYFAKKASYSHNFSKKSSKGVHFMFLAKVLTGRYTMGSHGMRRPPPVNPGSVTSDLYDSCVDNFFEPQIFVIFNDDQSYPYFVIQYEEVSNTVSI

SMILES	IC50 (read-out: PARP7 IC50) [nM]	IC50 [nM]
Cc1cccc(Oc2ccc3c(=O)[nH]nc(Cc4ccc(F)c(C(=O)N5CCN(c6ccc(C#N)cn6)CC5)c4)c3c2)c1 [Example 90, 6-(4-(2-fluoro-5-((4-oxo-7-(m-tolyloxy)-3,4-dihydrophthalazin-1-yl)methyl)benzoyl)piperazin-1-yl)nicotinonitrile]	< 50	–
N#Cc1ccnc(N2CCN(C(=O)c3cc(Cc4n[nH]c(=O)c5ccc(OC6CCC6)cc45)ccc3F)CC2)c1 [Example 95, 2-(4-(5-((7-Cyclobutoxy-4-oxo-3,4-dihydrophthalazin-1-yl)methyl)-2-fluorobenzoyl)piperazin-1-yl)isonicotinonitrile]	< 50	–
N#Cc1ccc(N2C[C@H]3CC[C@@H](C2)N3C(=O)c2cc(Cc3n[nH]c(=O)c4ccc(OC5CCC5)cc34)ccc2F)nc1 [Example 96, 6-(8-(5-((7-Cyclobutoxy-4-oxo-3,4-dihydrophthalazin-1-yl)methyl)-2-fluorobenzoyl)-3,8-diazabicyclo[3.2.1]octan-3-yl)nicotinonitrile]	< 50	–
O=C(c1cc(Cc2n[nH]c(=O)c3ccc(OC4CCC4)cc23)ccc1F)N1[C@@H]2CC[C@H]1CN(c1ncc(C(F)(F)F)cn1)C2 [Example 97, 6-cyclobutoxy-4-(4-fluoro-3-(3-(5-(trifluoromethyl)pyrimidin-2-yl)-3,8-diazabicyclo[3.2.1]octane-8-carbonyl)benzyl)phthalazin-1(2H)-one]	< 50	–
O=C(c1cc(Cc2n[nH]c(=O)c3ccc(OC4CCC4)cc23)ccc1F)N1C[C@H]2CC[C@@H](C1)N2c1ncc(C(F)(F)F)cn1 [Example 100, 6-Cyclobutoxy-4-(4-fluoro-3-(8-(5-(trifluoromethyl)pyrimidin-2-yl)-3,8-diazabicyclo[3.2.1]octane-3-carbonyl)benzyl)phthalazin-1(2H)-one]	< 50	–
O=C(c1cc(Cc2n[nH]c(=O)c3ccc(OC4CCC4)cc23)ccc1F)N1CC(Nc2ncc(C(F)(F)F)cn2)C1 [Example 102, 6-Cyclobutoxy-4-(4-fluoro-3-(3-((5-(trifluoromethyl)pyrimidin-2-yl)amino)azetidine-1-carbonyl)benzyl)phthalazin-1(2H)-one]	50 to 100	–
O=C(c1cc(Cc2n[nH]c(=O)c3ccc(OC4CCC4)cc23)ccc1F)N1CCC2C1CCN2c1ncc(C(F)(F)F)cn1 (centres unmarked) [Example 103, 6-Cyclobutoxy-4-(4-fluoro-3-(4-(5-(trifluoromethyl)pyrimidin-2-yl)octahydropyrrolo[3,2-b]pyrrole-1-carbonyl)benzyl)phthalazin-1(2H)-one]	50 to 100	–
N#Cc1ccc(NC2CN(C(=O)c3cc(Cc4n[nH]c(=O)c5ccc(OC6CCC6)cc45)ccc3F)C2)nc1 [Example 104, 6-((1-(5-((7-Cyclobutoxy-4-oxo-3,4-dihydrophthalazin-1-yl)methyl)-2-fluorobenzoyl)azetidin-3-yl)amino)nicotinonitrile]	50 to 100	–
N#Cc1ccnc(NC2CN(C(=O)c3cc(Cc4n[nH]c(=O)c5ccc(OC6CCC6)cc45)ccc3F)C2)c1 [Example 106, 2-(1-(5-((7-Cyclobutoxy-4-oxo-3,4-dihydrophthalazin-1-yl)methyl)-2-fluorobenzoyl)azetidin-3-ylamino)isonicotinonitrile]	100 to 500	–
O=C(c1cc(Cc2n[nH]c(=O)c3ccc(OC4CCC4)cc23)ccc1F)N1C[C@H]2CC[C@@H](C1)N2C(=O)C1CC1 [Example 107, 6-Cyclobutoxy-4-(3-(8-(cyclopropanecarbonyl)-3,8-diazabicyclo[3.2.1]octane-3-carbonyl)-4-fluorobenzyl)phthalazin-1(2H)-one]	–	100 to 500
CNC(=O)c1ccnc(N(C)C2CN(C(=O)c3cc(Cc4n[nH]c(=O)c5ccc(OC6CCC6)cc45)ccc3F)C2)n1 [Example 108, 2-((1-(5-((7-cyclobutoxy-4-oxo-3,4-dihydrophthalazin-1-yl)methyl)-2-fluorobenzoyl)azetidin-3-yl)(methyl)amino)-N-methylpyrimidine-4-carboxamide]	100 to 500	–
O=C(c1cc(Cc2n[nH]c(=O)c3ccc(OC4CCC4)cc23)ccc1F)N1CCC2C1CCN2C(=O)C1CC1 (centres unmarked) [Example 109, 6-cyclobutoxy-4-(3-(4-(cyclopropanecarbonyl)octahydropyrrolo[3,2-b]pyrrole-1-carbonyl)-4-fluorobenzyl)phthalazin-1(2H)-one]	100 to 500	–
Cc1cnc(N(C)C2CN(C(=O)c3cc(Cc4n[nH]c(=O)c5ccc(OC6CCC6)cc45)ccc3F)C2)n1C [Example 110, 6-Cyclobutoxy-4-(3-(3-((1,5-dimethyl-1H-imidazol-2-yl)(methyl)amino)azetidine-1-carbonyl)-4-fluorobenzyl)phthalazin-1(2H)-one]	100 to 500	–
N#Cc1ccc(N2CCC3C2CCN3C(=O)c2cc(Cc3n[nH]c(=O)c4ccc(OC5CCC5)cc34)ccc2F)nc1 (centres unmarked) [Example 111, 6-(4-(5-((7-Cyclobutoxy-4-oxo-3,4-dihydrophthalazin-1-yl)methyl)-2-fluorobenzoyl)hexahydropyrrolo[3,2-b]pyrrol-1(2H)-yl)nicotinonitrile]	100 to 500	–
O=C(C1CC1)N1C[C@H]2CC[C@@H](C1)N2C(=O)c1cc(Cc2n[nH]c(=O)c3ccc(OC4CCC4)cc23)ccc1F [Example 112, 6-Cyclobutoxy-4-(3-(3-(cyclopropanecarbonyl)-3,8-diazabicyclo[3.2.1]octane-8-carbonyl)-4-fluorobenzyl)phthalazin-1(2H)-one]	–	100 to 500
O=C(NC1CN(C(=O)c2cc(Cc3n[nH]c(=O)c4ccc(OC5CCC5)cc34)ccc2F)C1)C1CC1 [Example 113, N-(1-(5-((7-Cyclobutoxy-4-oxo-3,4-dihydrophthalazin-1-yl)methyl)-2-fluorobenzoyl)azetidin-3-yl)cyclopropanecarboxamide]	100 to 500	–
CN(C(=O)CCC(F)(F)F)C1CN(C(=O)c2cc(Cc3n[nH]c(=O)c4ccc(OC5CCC5)cc34)ccc2F)C1 [Example 114, N-(1-(5-((7-cyclobutoxy-4-oxo-3,4-dihydrophthalazin-1-yl)methyl)-2-fluorobenzoyl)azetidin-3-yl)-4,4,4-trifluoro-N-methylbutanamide]	100 to 500	–
N#Cc1ccc(N2CC3CN(C(=O)c4cc(Cc5n[nH]c(=O)c6ccc(OC7CCC7)cc56)ccc4F)CC3C2)nc1 (centres unmarked) [Example 115, 6-(5-(5-((7-Cyclobutoxy-4-oxo-3,4-dihydrophthalazin-1-yl)methyl)-2-fluorobenzoyl)hexahydropyrrolo[3,4-c]pyrrol-2(1H)-yl)nicotinonitrile]	100 to 500	–
CN(c1cncc(C#N)n1)C1CN(C(=O)c2cc(Cc3n[nH]c(=O)c4ccc(OC5CCC5)cc34)ccc2F)C1 [Example 116, 6-((1-(5-((7-Cyclobutoxy-4-oxo-3,4-dihydrophthalazin-1-yl)methyl)-2-fluorobenzoyl)azetidin-3-yl)(methyl)amino)pyrazine-2-carbonitrile]	100 to 500	–
CN(C(=O)C1CCN1)C1CN(C(=O)c2cc(Cc3n[nH]c(=O)c4ccc(OC5CCC5)cc34)ccc2F)C1 (centres unmarked) [Example 117, N-(1-(5-((7-cyclobutoxy-4-oxo-3,4-dihydrophthalazin-1-yl)methyl)-2-fluorobenzoyl)azetidin-3-yl)-N-methylazetidine-2-carboxamide]	500 to 2000	–
CN(C(=O)CC#N)C1CN(C(=O)c2cc(Cc3n[nH]c(=O)c4ccc(OC5CCC5)cc34)ccc2F)C1 [Example 118, 2-Cyano-N-(1-(5-((7-cyclobutoxy-4-oxo-3,4-dihydrophthalazin-1-yl)methyl)-2-fluorobenzoyl)azetidin-3-yl)-N-methylacetamide]	500 to 2000	–
O=C(c1cc(Cc2n[nH]c(=O)c3ccc(OC4CCC4)cc23)ccc1F)N1CC2CN(C(=O)C3CC3)CC2C1 (centres unmarked) [Example 119, 6-Cyclobutoxy-4-(3-(5-(cyclopropanecarbonyl)octahydropyrrolo[3,4-c]pyrrole-2-carbonyl)-4-fluorobenzyl)phthalazin-1(2H)-one]	500 to 2000	–
CN(c1nccc(C(F)(F)F)n1)C1CN(C(=O)c2cc(Cc3n[nH]c(=O)c4ccc(OC5CCC5)cc34)ccc2F)C1 [Example 120, 6-cyclobutoxy-4-(4-fluoro-3-(3-(methyl(4-(trifluoromethyl)pyrimidin-2-yl)amino)azetidine-1-carbonyl)benzyl) phthalazin-1(2H)-one]	500 to 2000	–
CN(C(=O)C1CC1)C1CN(C(=O)c2cc(Cc3n[nH]c(=O)c4ccc(OC5CCC5)cc34)ccc2F)C1 [Example 121, N-(1-(5-((7-Cyclobutoxy-4-oxo-3,4-dihydrophthalazin-1-yl)methyl)-2-fluorobenzoyl)azetidin-3-yl)-N-methylcyclopropanecarboxamide]	500 to 2000	–
CN(C(=O)C1CCO1)C1CN(C(=O)c2cc(Cc3n[nH]c(=O)c4ccc(OC5CCC5)cc34)ccc2F)C1 (centres unmarked) [Example 122, N-(1-(5-((7-cyclobutoxy-4-oxo-3,4-dihydrophthalazin-1-yl)methyl)-2-fluorobenzoyl)azetidin-3-yl)-N-methyloxetane-2-carboxamide]	500 to 2000	–
CNC(=O)c1ccnc(N(C)C2CN(C(=O)c3cc(Cc4n[nH]c(=O)c5ccc(OC6CCC6)cc45)ccc3F)C2)c1 [Example 123, 2-((1-(5-((7-cyclobutoxy-4-oxo-3,4-dihydrophthalazin-1-yl)methyl)-2-fluorobenzoyl)azetidin-3-yl)(methyl)amino)-N-methylisonicotinamide]	500 to 2000	–
CN(c1cc(C#N)ccn1)C1CN(C(=O)c2cc(Cc3n[nH]c(=O)c4ccc(OC5COC5)cc34)ccc2F)C1 [Example 124, 2-((1-(2-fluoro-5-((7-(oxetan-3-yloxy)-4-oxo-3,4-dihydrophthalazin-1-yl)methyl)benzoyl)azetidin-3-yl)(methyl)amino)isonicotinonitrile]	> 2000	–
N#Cc1cncc(N2CCN(C(=O)c3cc(Cc4n[nH]c(=O)c5ccc(OC6CCC6)cc45)ccc3F)CC2)c1 [Example 141, 5-(4-(5-((7-cyclobutoxy-4-oxo-3,4-dihydrophthalazin-1-yl)methyl)-2-fluorobenzoyl)piperazin-1-yl)nicotinonitrile]	50 to 100	–
N#Cc1ccc(N2CC3CCC2CN3C(=O)c2cc(Cc3n[nH]c(=O)c4ccc(OC5CCC5)cc34)ccc2F)nc1 (centres unmarked) [Example 143, 6-(5-(5-((7-cyclobutoxy-4-oxo-3,4-dihydrophthalazin-1-yl)methyl)-2-fluorobenzoyl)-2,5-diazabicyclo[2.2.2]octan-2-yl)nicotinonitrile]	50 to 100	–
